Measured values taken from US9676712B2, “Lactam compounds as EP4 receptor-selective agonists for use in the treatment of EP4-mediated diseases and conditions” (Cayman Chemical Company, Inc., priority 2013, dated 2017).

Legend:
EP2 receptor = EP2 receptor (Rattus norvegicus (Rat), UniProt Q62928); assay: STEP plate cell functional assay, SEAP activity, EP2; type: cell-based; details: SEAP reporter, 6-8 hours stimulation
Source text: (§1) Functional Cellular Assays (STEP Plate Format)
(§2) Procedure of SEAP Activity Assay for EP2/EP4 Agonist
(§3) 3. […] In addition each concentration had triplicates.
(§4) 4. […] Cover the plate with the lid.

EP4 receptor [1] = biological target: T1, EP4 receptor (Rattus norvegicus (Rat), UniProt P43114); assay: STEP plate cell functional assay, SEAP activity, EP4; type: cell-based; details: SEAP reporter, 6-8 hours stimulation
Source text: as §1, §2, §3, §4

EP4 receptor [2] = biological target: T1, EP4 receptor; assay: STEP plate cell functional assay, cAMP level (ELISA), EP4; type: cell-based; details: 30 minutes, 500 μM IBMX
Source text: as §1
Procedure of cAMP Assay for EP2/EP4 Agonist
as §3
6. Aspirate the supernatant.

[3] = biological target: Human Prostanoid EP4 Receptor (Homo sapiens (Human), UniProt P35408); assay: Radioligand binding assay, agonist site of the human prostanoid EP4 receptor in transfected HEK-293 cells ([3H]PGE2)
Procedure: Radioligand Binding Assay for the Evaluation of the Affinity of Compounds for the Agonist Site of the Human Prostanoid EP4 Receptor in Transfected HEK-293 Cells
Following incubation, the samples are filtered rapidly under vacuum through glass fiber filters (GF/B, Packard) presoaked with 0.3% PEI and rinsed several times with ice-cold 50 mM Tris-HCl using a 96-sample cell harvester (Unifilter, Packard). The filters are dried then counted for radioactivity in a scintillation counter (Topcount, Packard) using a scintillation cocktail (Microscint 0, Packard).

Chain of EP2 receptor (Q62928 whole entry): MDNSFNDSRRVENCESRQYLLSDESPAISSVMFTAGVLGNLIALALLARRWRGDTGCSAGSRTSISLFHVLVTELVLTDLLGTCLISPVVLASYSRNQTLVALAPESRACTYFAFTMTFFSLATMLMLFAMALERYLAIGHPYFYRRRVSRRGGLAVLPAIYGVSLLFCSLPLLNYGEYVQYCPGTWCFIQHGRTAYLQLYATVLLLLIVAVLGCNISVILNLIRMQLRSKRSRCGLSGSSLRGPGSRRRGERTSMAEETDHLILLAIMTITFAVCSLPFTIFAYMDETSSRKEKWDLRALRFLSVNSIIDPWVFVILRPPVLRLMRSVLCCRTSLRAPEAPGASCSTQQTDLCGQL
T1 sequence (P43114 whole entry): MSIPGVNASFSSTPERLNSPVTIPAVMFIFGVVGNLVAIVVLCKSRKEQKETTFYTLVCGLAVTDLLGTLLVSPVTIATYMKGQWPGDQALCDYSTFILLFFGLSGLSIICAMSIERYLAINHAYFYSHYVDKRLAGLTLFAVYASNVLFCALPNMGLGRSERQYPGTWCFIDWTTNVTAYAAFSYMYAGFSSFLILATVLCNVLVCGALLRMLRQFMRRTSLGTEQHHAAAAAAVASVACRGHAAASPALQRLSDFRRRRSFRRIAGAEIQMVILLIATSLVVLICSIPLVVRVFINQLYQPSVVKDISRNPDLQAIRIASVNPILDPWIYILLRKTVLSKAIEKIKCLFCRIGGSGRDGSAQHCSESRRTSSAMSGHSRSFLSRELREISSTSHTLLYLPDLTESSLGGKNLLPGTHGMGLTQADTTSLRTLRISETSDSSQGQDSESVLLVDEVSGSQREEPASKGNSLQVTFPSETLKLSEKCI
Chain of Human Prostanoid EP4 Receptor (P35408 whole entry): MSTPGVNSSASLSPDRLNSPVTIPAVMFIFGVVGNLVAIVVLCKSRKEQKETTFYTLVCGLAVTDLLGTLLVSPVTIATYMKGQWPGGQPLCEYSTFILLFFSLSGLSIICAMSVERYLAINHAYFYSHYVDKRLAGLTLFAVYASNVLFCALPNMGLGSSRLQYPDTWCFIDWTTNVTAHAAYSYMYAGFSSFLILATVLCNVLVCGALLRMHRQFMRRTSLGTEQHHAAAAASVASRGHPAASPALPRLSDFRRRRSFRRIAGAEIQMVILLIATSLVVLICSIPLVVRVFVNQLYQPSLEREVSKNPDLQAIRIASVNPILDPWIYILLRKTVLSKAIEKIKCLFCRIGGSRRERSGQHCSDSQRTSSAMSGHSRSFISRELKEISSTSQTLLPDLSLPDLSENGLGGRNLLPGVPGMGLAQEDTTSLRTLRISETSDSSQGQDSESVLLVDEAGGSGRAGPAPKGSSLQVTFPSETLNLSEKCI

Row | SMILES | EC50 (EP2 receptor) [nM] | EC50 (EP4 receptor [1]) [nM] | EC50 (EP4 receptor [2]) [nM] | IC50 ([3]; read-out: hEP4 receptor binding IC50) [nM] | Ki ([3]; read-out: hEP4 receptor binding Ki) [nM]
1 | CC(CCCc1ccccc1)[C@H](O)/C=C/[C@H]1CCC(=O)N1CCCCCCC(=O)O (mixture of isomers) [Example 2C, 7-((2R)-2-((3S,E)-3-hydroxy-4-methyl-7-phenylhept-1-en-1-yl)-5-oxopyrrolidin-1-yl)heptanoic acid] | > 1000 | 0.001 ± 0.001 | 0.007 | – | –
2 | CC(CCCc1ccccc1)[C@H](O)/C=C/[C@H]1CCC(=O)N1CC#Cc1ccc(C(=O)O)s1 (mixture of isomers) [Example 3C, 5-(3-((2R)-2-((3S,E)-3-hydroxy-4-methyl-7-phenylhept-1-en-1-yl)-5-oxopyrrolidin-1-yl)prop-1-yn-1-yl)thiophene-2-carboxylic acid] | > 10000 | 0.019 | – | – | –
3 | CC(CCCc1ccccc1)[C@@H](O)/C=C/[C@H]1CCC(=O)N1CC#Cc1ccc(C(=O)O)s1 (mixture of isomers) [Example 3D, 5-(3-((2R)-2-((3R,E)-3-hydroxy-4-methyl-7-phenylhept-1-en-1-yl)-5-oxopyrrolidin-1-yl)prop-1-yn-1-yl)thiophene-2-carboxylic acid] | > 10000 | 31.5 | – | – | –
4 | CC(CCCc1ccccc1)[C@H](O)/C=C/[C@H]1CCC(=O)N1CCCc1ccc(C(=O)O)s1 (mixture of isomers) [Example 4C, 5-(3-((2R)-2-((3S,E)-3-hydroxy-4-methyl-7-phenylhept-1-en-1-yl)-5-oxopyrrolidin-1-yl)propyl)thiophene-2-carboxylic acid] | 2280 | 0.003 | – | – | –
5 | CC(CCCc1ccccc1)[C@@H](O)/C=C/[C@H]1CCC(=O)N1CCCc1ccc(C(=O)O)s1 (mixture of isomers) [Example 4D, 5-(3-((2R)-2-((3R,E)-3-hydroxy-4-methyl-7-phenylhept-1-en-1-yl)-5-oxopyrrolidin-1-yl)propyl)thiophene-2-carboxylic acid] | > 10000 | – | – | – | –
6 | O=C(O)CCCCCCN1C(=O)CC[C@@H]1/C=C/[C@@H](O)CCCCc1ccccc1 [Example 1C, 7-((R)-2-((S,E)-3-hydroxy-7-phenylhept-1-en-1-yl)-5-oxopyrrolidin-1-yl)heptanoic acid] | > 1000 | 0.014 ± 0.02 | 1.37 | 10 | 3.8
